The values below come from publication PMC10531311, “Anti-Inflammatory Activities of 8-Benzylaminoxanthines Showing High Adenosine A2A and Dual A1/A2A Receptor Affinity” (International Journal of Molecular Sciences, 2023).

Series [1] has as its target T1, human adenosine A1R (Homo sapiens, UniProt P30542).
T1 construct: expressed in transfected cells; host or cells: CHO cells
T1 sequence (P30542 1-326): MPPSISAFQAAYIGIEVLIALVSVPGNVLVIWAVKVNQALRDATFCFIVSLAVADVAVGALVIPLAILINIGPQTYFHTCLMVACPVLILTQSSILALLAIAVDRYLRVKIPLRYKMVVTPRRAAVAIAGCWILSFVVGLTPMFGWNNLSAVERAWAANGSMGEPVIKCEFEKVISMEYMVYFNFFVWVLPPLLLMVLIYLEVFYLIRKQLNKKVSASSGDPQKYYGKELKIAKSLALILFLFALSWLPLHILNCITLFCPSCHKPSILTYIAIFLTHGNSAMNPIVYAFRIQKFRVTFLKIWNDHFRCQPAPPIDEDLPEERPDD
In words: Radioligand binding at human adenosine A1 receptor vs. [3H]CCPA. The note with it: for inhibition at 1 µM: CHO cells, read-out: A1R vs. [³H]CCPA % Inhibition ± SEM at 1 µM; for Ki: human recombinant receptor in CHO cells, read-out: A1R vs. [³H]CCPA Ki ± SEM. On the procedure:
(§1) Affinities for adenosine receptors were evaluated in radioligand binding assays as previously described. Human adenosine receptors were stably expressed in CHO cells. The following radioligands were used: [^3H]2-chloro-N^6-cyclopentyladenosine ([^3H]CCPA) for A1R; [^3H]3-(3-hydroxypropyl)-7-methyl-8-(m-methoxystyryl)-1-propargylxanthine ([^3H]MSX-2) for A2AR; [^3H]8-(4-(4-(4-chlorophenyl)piperazine-1-sulfonyl)phenyl)-1-propylxanthine ([^3H]PSB-603) for A2BR; [^3H]phenyl-8-ethyl-4-methyl-(8R)-4,5,7,8-tetrahydro-1H-imidazo [2,1-i]purine-5-one ([^3H]PSB-11) for A3R. Initially, compounds were tested at a concentration of 1 µM. […] At least three independent experiments were performed. Data were analyzed using GraphPad PRISM version 5.0 or higher (Graph Pad, San Diego, CA, USA). Ki were calculated using the Cheng–Prusoff equation.

Series [2] deals with T2, human adenosine A2AR (Homo sapiens, UniProt P29274).
T2 construct: expressed in transfected cells; host or cells: CHO cells
In words: Radioligand binding at human adenosine A2A receptor vs. [3H]MSX-2. To be noted: for Ki: human recombinant receptor in CHO cells, read-out: A2AR vs. [³H]MSX-2 Ki ± SEM. On the procedure:
as §1

Series [3] has as its target T3, human adenosine A2BR (Homo sapiens, UniProt P29275).
T3 construct: expressed in transfected cells; host or cells: CHO cells
T3 sequence (P29275 1-332): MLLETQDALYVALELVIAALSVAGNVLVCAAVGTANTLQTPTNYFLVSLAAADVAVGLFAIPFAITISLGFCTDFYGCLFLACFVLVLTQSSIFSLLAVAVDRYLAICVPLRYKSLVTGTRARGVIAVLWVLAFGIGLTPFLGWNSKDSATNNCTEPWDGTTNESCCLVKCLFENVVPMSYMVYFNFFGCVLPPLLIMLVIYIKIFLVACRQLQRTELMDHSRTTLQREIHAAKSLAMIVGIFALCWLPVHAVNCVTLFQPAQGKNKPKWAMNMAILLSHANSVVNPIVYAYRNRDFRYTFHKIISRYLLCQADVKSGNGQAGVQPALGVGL
In words: Radioligand binding at human adenosine A2B receptor vs. [3H]PSB-603. The note with it: for inhibition at 1 µM: CHO cells, read-out: A2BR vs. [³H]PSB-603 % Inhibition ± SEM at 1 µM; for Ki: human recombinant receptor in CHO cells, read-out: A2BR vs. [³H]PSB-603 Ki ± SEM. As to the method: as §1

In series [4] the target is T4, human adenosine A3R (Homo sapiens, UniProt P0DMS8).
T4 construct: expressed in transfected cells; host or cells: CHO cells
T4 sequence (P0DMS8 1-318): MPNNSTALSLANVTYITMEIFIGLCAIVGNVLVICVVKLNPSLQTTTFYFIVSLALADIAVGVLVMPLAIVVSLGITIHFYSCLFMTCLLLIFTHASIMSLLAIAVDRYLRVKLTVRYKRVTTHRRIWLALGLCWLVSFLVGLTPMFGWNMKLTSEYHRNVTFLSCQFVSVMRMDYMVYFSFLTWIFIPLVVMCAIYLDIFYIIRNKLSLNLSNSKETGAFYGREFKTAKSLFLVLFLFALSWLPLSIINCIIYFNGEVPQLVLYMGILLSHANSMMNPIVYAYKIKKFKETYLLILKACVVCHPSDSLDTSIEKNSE
Kind of series: Radioligand binding at human adenosine A3 receptor vs. [3H]PSB-11. The note with it: for inhibition at 1 µM: CHO cells, read-out: A3R vs. [H³]PSB-11 % Inhibition ± SEM at 1 µM; for Ki: human recombinant receptor in CHO cells, read-out: A3R vs. [H³]PSB-11 Ki ± SEM. On the procedure: as §1

The target in series [5] is T5, human MAO B (Homo sapiens, UniProt P27338).
T5 sequence (P27338 1-520): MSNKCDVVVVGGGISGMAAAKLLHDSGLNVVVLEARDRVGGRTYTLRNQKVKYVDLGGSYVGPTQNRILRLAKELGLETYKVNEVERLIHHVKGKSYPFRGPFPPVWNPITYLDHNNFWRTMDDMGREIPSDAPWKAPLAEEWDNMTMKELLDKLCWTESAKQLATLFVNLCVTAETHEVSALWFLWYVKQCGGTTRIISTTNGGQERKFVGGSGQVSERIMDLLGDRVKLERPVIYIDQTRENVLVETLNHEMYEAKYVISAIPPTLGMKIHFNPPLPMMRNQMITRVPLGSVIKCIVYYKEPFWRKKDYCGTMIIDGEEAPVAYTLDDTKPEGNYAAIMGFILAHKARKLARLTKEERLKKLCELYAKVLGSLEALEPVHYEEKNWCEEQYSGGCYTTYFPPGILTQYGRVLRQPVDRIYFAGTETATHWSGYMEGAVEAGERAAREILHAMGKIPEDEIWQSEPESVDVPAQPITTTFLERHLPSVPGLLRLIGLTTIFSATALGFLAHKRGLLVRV
In words: Human MAO B inhibition, fluorometric method. Format: biochemical. To be noted: mean of two independent experiments, read-out: % of hMAO B Inhibition at 1 µM. On the procedure: The compounds were tested twice in duplicates at a concentration of 1 μM by fluorometric method as previously described. Paratyramine (200 μM) was used as a substrate for the enzyme. Safinamide (1 μM; reversible) and rasagiline (1 μM; irreversible) were used as reference inhibitors.

T2 sequence (P29274 whole entry): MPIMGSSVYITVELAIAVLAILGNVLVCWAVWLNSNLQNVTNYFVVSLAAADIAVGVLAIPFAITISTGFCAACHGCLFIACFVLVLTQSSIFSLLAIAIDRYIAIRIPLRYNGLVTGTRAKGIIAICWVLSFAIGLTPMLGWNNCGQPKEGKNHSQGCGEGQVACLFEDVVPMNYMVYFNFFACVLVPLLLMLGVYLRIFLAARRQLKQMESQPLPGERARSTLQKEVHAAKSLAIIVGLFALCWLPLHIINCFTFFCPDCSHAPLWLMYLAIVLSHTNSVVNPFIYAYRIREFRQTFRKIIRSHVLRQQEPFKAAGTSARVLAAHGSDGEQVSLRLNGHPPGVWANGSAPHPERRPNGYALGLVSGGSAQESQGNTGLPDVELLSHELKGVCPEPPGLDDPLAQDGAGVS

A word on the inhibition: it is the drop in the measured response relative to a control, in per cent. The term Ki denotes the equilibrium dissociation constant of an inhibitor or competing ligand from its target. A word on the melting point: it is the temperature, or range, at which the solid turns liquid. Compound `CCCn1c(=O)c2c(nc(NCc3cccc(OC)c3)n2C)n(C)c1=O` [compound 17, 8-((3-methoxybenzyl)amino)-3,7-dimethyl-1-propyl-3,7-dihydro-1H-purine-2,6-dione] came in with a melting point of 173 to 175 °C. For the same compound, in series [1], the inhibition at 1 µM turned out to be 17% and the Ki was > 1000 nM. For the same compound, the Ki in series [2] was 605 ± 120 nM. In series [3], the inhibition at 1 µM is 20% and the Ki is > 1000 nM. Further, in series [4], the inhibition at 1 µM was determined as 6% and the Ki was > 1000 nM. Moreover, the inhibition at 1 µM in series [5] came to 5%.
As for `C#CCn1c(=O)c2c(nc(NCc3ccccc3F)n2C)n(C)c1=O` [compound 21, 8-((2-Fluorobenzyl)amino)-3,7-dimethyl-1-(prop-2-yn-1-yl)-3,7-dihydro-1H-purine-2,6-dione], the melting point lay within 224 to 226 °C. Besides, in series [1], the Ki was 353 ± 42 nM. Moreover, the Ki in series [2] was determined as 287 ± 90 nM. Besides, in series [3], the inhibition at 1 µM was 41% and the Ki is > 1000 nM. For the same compound, in series [4], the inhibition at 1 µM turned out to be 21% and the Ki is > 1000 nM. In addition, in series [5], the inhibition at 1 µM came to 8%.
As to `CCCn1c(=O)c2c(nc(NCc3ccccc3Cl)n2C)n(C)c1=O` [compound 5, 8-((2-Chlorobenzyl)amino)-3,7-dimethyl-1-propyl-3,7-dihydro-1H-purine-2,6-dione], the melting point was in the range of 190 to 191 °C. Also, in series [1], the inhibition at 1 µM came out at 26% and the Ki was > 1000 nM. For the same compound, the Ki in series [2] was 302 ± 34 nM. In addition, the Ki in series [3] was 832 ± 133 nM. Besides, in series [4], the inhibition at 1 µM came out at 4% and the Ki was > 1000 nM. For the same compound, the inhibition at 1 µM in series [5] was 8%.
`C#CCn1c(=O)c2c(nc(NCc3ccc(OC)c(OC)c3)n2C)n(C)c1=O` [compound 26, 8-((3,4-dimethoxybenzyl)amino)-3,7-dimethyl-1-(prop-2-yn-1-yl)-3,7-dihydro-1H-purine-2,6-dione] displayed a melting point of 247 to 249 °C. In series [1], the inhibition at 1 µM was -2% and the Ki was > 1000 nM. In addition, the Ki in series [2] came to 108 ± 22 nM. For the same compound, in series [3], the inhibition at 1 µM is 28% and the Ki is > 1000 nM. In series [4], the inhibition at 1 µM stood at 2% and the Ki is > 1000 nM. The inhibition at 1 µM in series [5] stood at 3%.
Consider `CCCn1c(=O)c2c(nc(NCc3ccccc3F)n2C)n(C)c1=O` [compound 13, 8-((2-Fluorobenzyl)amino)-3,7-dimethyl-1-propyl-3,7-dihydro-1H-purine-2,6-dione], for which the melting point fell in the range of 224 to 226 °C. For the same compound, in series [1], the inhibition at 1 µM came out at 32% and the Ki is > 1000 nM. For the same compound, the “A2AR vs. [³H]MSX-2 % Inhibition ± SEM at 1 µM” value in series [2] (1 µM, CHO cells) worked out at 47 ± 2%. Further, the Ki in series [2] is > 1000 nM. In addition, in series [3], the inhibition at 1 µM came to 21% and the Ki was > 1000 nM. In series [4], the inhibition at 1 µM stood at 6% and the Ki is > 1000 nM. In addition, in series [5], the inhibition at 1 µM is 15%.
Consider `CCCn1c(=O)c2c(nc(NCc3ccccc3Br)n2C)n(C)c1=O` [compound 12, 8-((2-Bromobenzyl)amino)-3,7-dimethyl-1-propyl-3,7-dihydro-1H-purine-2,6-dione], for which the melting point fell in the range of 206 to 207 °C. In series [1], the inhibition at 1 µM was 30% and the Ki is > 1000 nM. Also, the Ki in series [2] came out at 361 ± 82 nM. In series [3], the inhibition at 1 µM stood at 33% and the Ki is > 1000 nM. In series [4], the inhibition at 1 µM turned out to be 8% and the Ki is > 1000 nM. In addition, the inhibition at 1 µM in series [5] is 7%.
As for `CCCn1c(=O)c2c(nc(NCc3c(F)cccc3Cl)n2C)n(C)c1=O` [compound 14, 8-((2-Chloro-6-fluorobenzyl)amino)-3,7-dimethyl-1-propyl-3,7-dihydro-1H-purine-2,6-dione], the melting point was 241 to 243 °C. In addition, in series [1], the inhibition at 1 µM came to 29% and the inhibitory constant (Ki) was > 1000 nM. In series [2], the Ki is 124 ± 26 nM. Further, the Ki in series [3] was found to be 687 ± 147 nM. In series [4], the inhibition at 1 µM came to 18% and the Ki was > 1000 nM. Further, the inhibition at 1 µM in series [5] was found to be 9%.
With `C#CCn1c(=O)c2c(nc(NCc3cccc(Cl)c3)n2C)n(C)c1=O` [compound 23, 8-((3-Chlorobenzyl)amino)-3,7-dimethyl-1-(prop-2-yn-1-yl)-3,7-dihydro-1H-purine-2,6-dione], the melting point fell in the range of 234 to 236 °C. Moreover, the Ki in series [1] came out at 334 ± 122 nM. Besides, the Ki in series [2] was determined as 126 ± 15 nM. In series [3], the inhibition at 1 µM amounted to 26% and the Ki was > 1000 nM. Further, in series [4], the inhibition at 1 µM was 14% and the Ki is > 1000 nM. The inhibition at 1 µM in series [5] worked out at 8%.
`CCCn1c(=O)c2c(nc(NCc3cccc(Br)c3)n2C)n(C)c1=O` [compound 16, 8-((3-Bromobenzyl)amino)-3,7-dimethyl-1-propyl-3,7-dihydro-1H-purine-2,6-dione]: the melting point was in the range of 220 to 222 °C. For the same compound, the Ki in series [1] amounted to 340 ± 73 nM. Also, the Ki in series [2] worked out at 254 ± 59 nM. Also, in series [3], the inhibition at 1 µM worked out at 30% and the Ki was > 1000 nM. Also, in series [4], the inhibition at 1 µM came out at 11% and the Ki is > 1000 nM. For the same compound, in series [5], the inhibition at 1 µM was 11%.
Turning to `C#CCn1c(=O)c2c(nc(NCc3ccccc3Cl)n2C)n(C2CC2)c1=O` [compound 27, 8-((2-Chlorobenzyl)amino)-3-cyclopropyl-7-methyl-1-(prop-2-yn-1-yl)-3,7-dihydro-1H-purine-2,6-dione], the melting point lay within 172 to 173 °C. In addition, the Ki in series [1] turned out to be 247 ± 43 nM. Moreover, the Ki in series [2] amounted to 311 ± 167 nM. In series [3], the inhibition at 1 µM stood at 9% and the Ki was > 1000 nM. Further, in series [4], the inhibition at 1 µM worked out at 16% and the Ki is > 1000 nM.
